{
  "source": "paper PMC6396024",
  "about": "“Artemin and an Artemin-Derived Peptide, Artefin, Induce Neuronal Survival, and Differentiation Through Ret and NCAM” (Frontiers in Molecular Neuroscience, 2019)",
  "molecules": {"B1": {"name": "recombinant human Artemin (ARTN) (ligand, UniProt Q5T4W7 108-220, looked up)", "chain": "AGGPGSRARAAGARGCRLRSQLVPVRALGLGHRSDELVRFRFCSGSCRRARSPHDLSLASLLGAGALRPPPGSRPVSQPCCRPTRYEAVSFMDVNSTWRTVDRLSATACGCLG", "notes": "Artemin (ARTN), human, UniProt D3DPX9; source: bought: R&D Systems"}},
  "key": {"[1]": {"system": "cerebellar granule neurons (CGNs)", "test": "Survival assay of CGNs induced to undergo apoptosis by potassium withdrawal", "assay_type": "cell-based, Wistar rat", "conditions": "for neuronal survival in apoptotic medium: 48 h, 5 mM KCl, serially diluted ARTN or artefin, paired t-test; for maximal neuroprotective effect / maximum level of neuronal survival: control 40 mM KCl = 100%, mean of five experiments", "procedure": "(§1) Cerebellar granule neurons (CGNs) were prepared from 7-day-old Wistar rat pups (Charles River Laboratories, Sulzfeld, Germany) as previously described ([Schousboe et al., 1989]). Briefly, pups were decapitated, and the cerebellum was removed and cleared from blood vessels and meninges in ice-cold modified Krebs-Ringer buffer. The cerebellum was dissociated by chopping and trypsinization. Cells were washed in Krebs-Ringer buffer containing DNAse I (Sigma, St. Louis, MO, United States) and soybean trypsin inhibitor (Sigma) to stop trypsinization, and the remaining tissue pieces were pelleted by centrifugation. Cells were then washed in Krebs-Ringer buffer containing Ca^2+ and Mg^2+ and re-suspended in appropriate Neurobasal^TM medium (Invitrogen, Taastrup, Denmark) with supplements depending on the experiment.\nCerebellar granule neurons were re-suspended in Neurobasal^TM-A medium supplemented with 2% (v/v) B27 (Invitrogen, Taastrup, Denmark), 0.5% (v/v) glutamax, 100 U/ml penicillin, 100 μg/ml streptomycin, and 40 mM KCl, and seeded at a density of 1 × 10^5 cells/well in 8-well LabTek Permanox chamber slides (Nunc, Roskilde, Denmark) coated with poly-L-lysine (10 μg/ml). To avoid proliferation of non-neuronal cells, cytosine-β-D-arabinofuranoside (Sigma) was added to cells 24 h after plating. CGNs were allowed to differentiate for 7 days in vitro (DIV) in the presence of 40 mM KCl before being induced to undergo apoptosis by changing the medium to one containing only 5 mM KCl (apoptotic medium) ([D’Mello et al., 1993]). At 7 DIV, cells were washed and stimulated with serially diluted ARTN or artefin diluted in the apoptotic medium. Three different controls were included; (1) cells grown in medium containing 40 mM KCl served as a positive control; (2) cells grown in medium containing 5 mM KCl served as a negative control; (3) cells grown in medium containing 5 mM KCl supplemented with 50 ng/ml insulin growth factor-1 (IGF-1) (Life Technology), a known anti-apoptotic factor for CGNs in this setup ([Galli et al., 1995]). After 48 h following the induction of apoptosis, cells were fixated in 4% formaldehyde for 30 min, and nuclear morphology was visualized with Hoechst 33258 staining (Invitrogen, Taastrup, Denmark) (Figure 2A). Images of cells were obtained using a Nikon Diaphot 200 fluorescent microscope equipped with a Nikon Plan 40× objective (Nikon, Tokyo, Japan) and coupled to a black-white video camera. Images of at least 1000 cells/well in different fields of view were analyzed, and the percentage of viable neurons was estimated as the ratio of live cells (non-pyknotic cells with dispersed chromatin) to the total number of neurons.\nFIGURE 2 Effect of ARTN and artefin on survival of cerebellar granular neurons (CGNs) induced to undergo apoptosis. CGNs were differentiated for 7 days in the presence of 40 mM KCl before apoptosis was induced by potassium withdrawal. (A) Nuclear morphology of CGNs after Hoechst 33258 staining. […] Scale bar: 100 μm. Cells were grown for 48 h in media, containing 40 mM KCl, apoptotic medium (5 mM KCl) or apoptotic medium supplemented with 50 ng/ml IGF-1 (positive control) (B), serially diluted ARTN (C), or artefin (D). Each experiment was performed in the presence of the three controls (40 mM KCl, 5 mM KCl, and 5 mM KCl plus IGF-1), and the survival effect of the growth factor and the peptide was compared to its own apoptotic control (5 mM KCl). Results from the five experiments are expressed as percentage of 40 mM KCl control set at 100% and presented as mean ± SEM. The anti-apoptotic effect of ARTN and artefin was tested using Student’s paired t-test, where ^∗p < 0.05; ^∗∗p < 0.01; ^∗∗∗p < 0.001; ^∗∗∗∗p < 0.0001."}, "[2]": {"system": "FGFR; cerebellar granule neurons (CGNs)", "test": "Neurite outgrowth in CGNs with FGFR-inhibitor SU5402", "assay_type": "cell-based, Wistar rat", "conditions": "SU5402 20, 40, 80 μM; ARTN 0.21 nM or artefin 1.4 μM; p < 0.01", "procedure": "as §1\nCerebellar granule neurons CGNs were re-suspended in Neurobasal^TM medium supplemented with 2% (v/v) B27, 0.5% (v/v) glutamax, 100 U/ml penicillin, 100 μg/ml streptomycin, 0.4% (w/v) BSA, and 20 mM HEPES and were seeded in 8-well LabTek Permanox chamber slides (Nunc) at a density of 1 × 10^4 cells/cm^2. Various concentrations of ARTN, artefin, scrambled artefin, or reversed artefin were added to neurons immediately after seeding. For the RET inhibition assay, the inhibitory goat anti-mouse RET antibody (4.1 μg/ml; R&D systems, Abingdon, United Kingdom) or control goat IgG (4.1 μg/ml; Santa Cruz Biotechnology, Dallas, TX, United States) were added to neurons 1 h before stimulation with ARTN (0.042 nM) […]. For the competition assay between growth factor and mimetic peptide, a combination of ARTN (2.1 nM) and artefin (4.2 μM) was added to the cells immediately after seeding. […]\nTo estimate neurite outgrowth, neurons were fixated 24 h after stimulation and stained with rabbit anti-growth-associated-protein-43 (GAP-43) antibody (Chemicon International, Inc., Temecula, CA, United States) or anti-GFP antibody (for transfection experiment) overnight at 4°C followed by incubation with secondary Alexa-conjugated goat anti-rabbit antibodies (Invitrogen, Taastrup, Denmark). In case of experiments with plasmid transfection, the transfection efficiency was ca. 20% of total cells and the neurite outgrowth was evaluated only in GFP-positive, i.e., transfected, cells. […]\nComputer-assisted fluorescent microscopy was performed using a Nikon Diaphot 300 inverted microscope (Nikon) equipped with a Nikon Plan 20× objective and coupled to a video camera (Grundig Electronics, Germany). For each condition in each experiment, including the experiment with transfections, images of approximately 200 cells were recorded in systematic series of fields of view, and neurite outgrowth was quantified using a stereological approach as previously described ([Rønn et al., 2000]). […]"}, "[3]": {"conditions": "48 h in apoptotic medium (5 mM KCl)"}},
  "note": "Bridge positions count the residues as written; N and C are the ends. Ends that are not written are not given here. I, II: the chains in the order shown.",
  "data": [
    {"molecule": "I: RSPHDLSLASLLGAGKK-NH2 / II: RSPHDLSLASLLGAGK / III: RSPHDLSLASLLGAG / IV: RSPHDLSLASLLGAG (amide I:16-IV:C, I:17-II:C, II:16-III:C; C-terminus assumed) [artefin]", "values": [
      {"measurement": "neuronal survival in apoptotic medium", "setting": "[1]", "result": "significantly promoted neuronal survival"},
      {"measurement": "concentration of maximum neuronal survival", "setting": "[1]; [3]", "result": 0.156, "unit": "µM"},
      {"measurement": "maximal neuroprotective effect / maximum level of neuronal survival", "setting": "[1]; [3]", "result": "72.95 % of control"},
      {"measurement": "neurite outgrowth effect in the presence of SU5402", "setting": "[2]", "result": "dose-dependently inhibited the neurite outgrowth effect of artefin"}
    ]},
    {"molecule": "B1", "values": [
      {"measurement": "neuronal survival in apoptotic medium", "setting": "[1]", "result": "promoted the survival of CGNs in culture in a dose-dependent manner"},
      {"measurement": "concentration of maximal neuroprotective effect", "setting": "[1]; [3]", "result": 4, "unit": "pM"},
      {"measurement": "maximal neuroprotective effect / maximum level of neuronal survival", "setting": "[1]; [3]", "result": "68.3 % of control"},
      {"measurement": "neurite outgrowth effect in the presence of SU5402", "setting": "[2]", "result": "completely abolished in the presence of serially diluted inhibitor"}
    ]}
  ]
}
